# Source: US20240197726A1, “NOVEL TETRAHYDROISOQUINOLINE ALKALOID COMPOUND CONTAINING MACROCYCLE” (THE UNIVERSITY OF TOKYO, priority 2021, published 2024)
# Read-outs that look alike come from different tables or passages of the source.
# Experiments:
# Assay type in all cases: cell-based
# [1] = test system: HCC2998 colorectal cancer cells; test: antitumor activity, sulforhodamine B cell growth assay, HCC2998; settings: HCC2998, drug exposure 48 hours, read-out: GI50 value: 50% growth inhibitory concentration
# Description: (§1) The THIQ compound containing a macrocyclic structure of the present invention was administered to various cancer cell lines, and the antitumor activity (Go value) was observed. Specifically, verification was performed according to the literature (Yamori, T.; Matsunaga, A.; Sato, S.; Yamazaki, K.; Komi, A.; Ishizu, K. et al. Cancer Res. 1999, 59, 4042) by the following procedure.
# (§2) Cells were plated at an appropriate density in a 96-well plate in RPMI 1640 together with 5% fetal bovine serum, and adhered overnight. The cells were exposed to a drug for 48 hours. Then, according to the sulforhodamine B assay described by Skehan et al (Skehan P., Storeng R., Scudiero D., Monks A., McMahon J., Vistica D., Warren J. T., Bokesch H., Kenney S., Boyd M. R. J Natl. Cancer Inst, 1990, 82, 1107-1112), the cell growth rate was measured. The absorbance of the control well (C) and the test well (T) was measured at 525 nm. In addition, the time at which the drug was added was set as time 0, and the absorbance for the test well (T0) was measured. Using these measured values, the cell growth inhibitory effect (% growth=PG) was calculated by the following formula at each concentration of the drug.
# (§3) (T<T0): PG=100×[(T−T0)/T]
# (§4) The PG values determined above for each cell line were plotted against the concentration (logarithm) on a semi-logarithmic graph, and summarized for each visceral cancer. Concentrations at which the dose-response curve of each cell line crossed the horizontal line of PG=50%, 0%, or −50% were calculated. These concentrations were defined as Log GI50, Log TGI, and Log LC50. Actually, using two data points of the drug concentration before and after crossing each horizontal line, the drug concentration (logarithmic value) at the intersection of the straight line connecting the two points and the horizontal line for each PG was calculated.
# [2] = test system: ACHN kidney cancer cells; test: antitumor activity, sulforhodamine B cell growth assay, ACHN; settings: ACHN, drug exposure 48 hours, read-out: GI50 value: 50% growth inhibitory concentration
# Description: as §1, §2, §3, §4
# [3] = test system: NCI-H226 lung cancer cells; test: antitumor activity, sulforhodamine B cell growth assay, NCI-H226; settings: NCI-H226, drug exposure 48 hours, read-out: GI50 value: 50% growth inhibitory concentration
# Description: as §1, §2, §3, §4
# [4] = test system: MCF-7 breast cancer cells; test: antitumor activity, sulforhodamine B cell growth assay, MCF-7; settings: MCF-7, drug exposure 48 hours, read-out: GI50 value: 50% growth inhibitory concentration
# Description: as §1, §2, §3, §4
# [5] = test system: SF-268 central nervous system cancer cells; test: antitumor activity, sulforhodamine B cell growth assay, SF-268; settings: SF-268, drug exposure 48 hours, read-out: GI50 value: 50% growth inhibitory concentration
# Description: as §1, §2, §3, §4
# [6] = test system: OVCAR-3 cancer cells; test: antitumor activity, sulforhodamine B cell growth assay, OVCAR-3; settings: OVCAR-3, drug exposure 48 hours, read-out: GI50 value: 50% growth inhibitory concentration
# Description: as §1, §2, §3, §4
# [7] = test system: KM-12 colorectal cancer cells; test: antitumor activity, sulforhodamine B cell growth assay, KM-12; settings: KM-12, drug exposure 48 hours, read-out: GI50 value: 50% growth inhibitory concentration
# Description: as §1, §2, §3, §4
# [8] = test system: HBC-5 breast cancer cells; test: antitumor activity, sulforhodamine B cell growth assay, HBC-5; settings: HBC-5, drug exposure 48 hours, read-out: GI50 value: 50% growth inhibitory concentration
# Description: as §1, §2, §3, §4
# [9] = test system: MKN74 gastric cancer cells; test: antitumor activity, sulforhodamine B cell growth assay, MKN74; settings: MKN74, drug exposure 48 hours, read-out: GI50 value: 50% growth inhibitory concentration
# Description: as §1, §2, §3, §4
# [10] = test system: LOX-IMVI melanoma cells; test: antitumor activity, sulforhodamine B cell growth assay, LOX-IMVI; settings: LOX-IMVI, drug exposure 48 hours, read-out: GI50 value: 50% growth inhibitory concentration
# Description: as §1, §2, §3, §4
# [11] = test system: U251 central nervous system cancer cells; test: antitumor activity, sulforhodamine B cell growth assay, U251; settings: U251, drug exposure 48 hours, read-out: GI50 value: 50% growth inhibitory concentration
# Description: as §1, §2, §3, §4
# [12] = test system: NCI-H23 lung cancer cells; test: antitumor activity, sulforhodamine B cell growth assay, NCI-H23; settings: NCI-H23, drug exposure 48 hours, read-out: GI50 value: 50% growth inhibitory concentration
# Description: as §1, §2, §3, §4
# [13] = test system: PC-3 prostate cancer cells; test: antitumor activity, sulforhodamine B cell growth assay, PC-3; settings: PC-3, drug exposure 48 hours; read-out: GI50 value: 50% growth inhibitory concentration
# Description: as §1, §2, §3, §4
# [14] = test system: DMS114 lung cancer cells; test: antitumor activity, sulforhodamine B cell growth assay, DMS114; settings: DMS114, drug exposure 48 hours, read-out: GI50 value: 50% growth inhibitory concentration
# Description: as §1, §2, §3, §4
# [15] = test system: SF-295 central nervous system cancer cells; test: antitumor activity, sulforhodamine B cell growth assay, SF-295; settings: SF-295, drug exposure 48 hours, read-out: GI50 value: 50% growth inhibitory concentration
# Description: as §1, §2, §3, §4
# [16] = test system: SF-539 central nervous system cancer cells; test: antitumor activity, sulforhodamine B cell growth assay, SF-539; settings: SF-539, drug exposure 48 hours, read-out: GI50 value: 50% growth inhibitory concentration
# Description: as §1, §2, §3, §4
# [17] = test system: MDA-MB-231 breast cancer cells; test: antitumor activity, sulforhodamine B cell growth assay, MDA-MB-231; settings: MDA-MB-231, drug exposure 48 hours, read-out: GI50 value: 50% growth inhibitory concentration
# Description: as §1, §2, §3, §4
# [18] = test system: BSY-1 breast cancer cells; test: antitumor activity, sulforhodamine B cell growth assay, BSY-1; settings: BSY-1, drug exposure 48 hours; read-out: GI50 value: 50% growth inhibitory concentration
# Description: as §1, §2, §3, §4
# [19] = test system: MKN45 gastric cancer cells; test: antitumor activity, sulforhodamine B cell growth assay, MKN45; settings: MKN45, drug exposure 48 hours, read-out: GI50 value: 50% growth inhibitory concentration
# Description: as §1, §2, §3, §4
# [20] = test system: OVCAR-4 cancer cells; test: antitumor activity, sulforhodamine B cell growth assay, OVCAR-4; settings: OVCAR-4, drug exposure 48 hours, read-out: GI50 value: 50% growth inhibitory concentration
# Description: as §1, §2, §3, §4
# [21] = test system: DMS273 lung cancer cells; test: antitumor activity, sulforhodamine B cell growth assay, DMS273; settings: DMS273, drug exposure 48 hours, read-out: GI50 value: 50% growth inhibitory concentration
# Description: as §1, §2, §3, §4
SMILES,GI50 [13] [nM],GI50 [18] [nM],GI50 [1] [nM],GI50 [2] [nM],GI50 [3] [nM],GI50 [4] [nM],GI50 [5] [nM],GI50 [6] [nM],GI50 [7] [nM],GI50 [9] [nM],GI50 [11] [nM],GI50 [12] [nM],GI50 [15] [nM],GI50 [16] [nM],GI50 [17] [nM],GI50 [19] [nM],GI50 [20] [nM],GI50 [21] [nM],other results
COc1c(C)cc2c(c1O)[C@@H]1[C@@H]3Cc4c5c(C)c6c(c4C(CNC(=O)[C@H](C)NC(=O)OCC4C=C(CO5)Cn5c(=O)n(-c7ccccc7)c(=O)n54)N3[C@@H](C#N)[C@H](C2)N1C)OCO6 [Compound 16],26,3.1,,,,,,,,,,,,,,,,,"GI50 ([1]; Homo sapiens, HCC 2998): 17 nM; GI50 ([2]; Homo sapiens): 25 nM; GI50 ([3]; Homo sapiens): 25 nM; GI50 ([4]; Homo sapiens, MCF7): 4.4 nM; GI50 ([5]; Homo sapiens): 13 nM; GI50 ([6]; Homo sapiens): 6.4 nM; GI50 ([7]; Homo sapiens, KM12): 14 nM; GI50 ([8]; HBC5): 6.9 nM; GI50 ([9]; Homo sapiens, MKN-74): 32 nM; GI50 ([10]; Homo sapiens): 3.3 nM; GI50 ([11]; Homo sapiens, U-251): 5.8 nM; GI50 ([12]; Homo sapiens): 20 nM; GI50 ([14]; Homo sapiens, DMS-114): 3.8 nM; GI50 ([15]; Homo sapiens): 29 nM; GI50 ([16]; Homo sapiens): 8.2 nM; GI50 ([17]; Homo sapiens): 6.7 nM; GI50 ([19]; Homo sapiens, MKN-45): 7.1 nM; GI50 ([20]; Homo sapiens): 36 nM; GI50 ([21]; Homo sapiens, DMS-273): 15 nM"
"COC1=C(C)C(=O)C2=C(C1=O)[C@H](CNC(=O)[C@H](C)N)N1C(C2)[C@H]2c3c(cc(C)c(OC)c3O)C[C@@H]([C@@H]1C#N)N2C (stereo partly drawn) [Cyanosafracin B, reference compound]",290,34,350,320,310,52,370,130,530,310,370,290,500,180,130,300,290,270,GI50 ([8]; listed as drawing 116): 82 nM; GI50 ([8]; listed as drawing 120): 62 nM; GI50 ([10]; listed as drawing 116): 81 nM; GI50 ([10]; listed as drawing 120): 61 nM; GI50 ([14]; listed as drawing 116): 35 nM; GI50 ([14]; listed as drawing 148): 38 nM
COc1c(C)cc2c(c1O)C1C3Cc4c5c(C)c6c(c4C(CNC(=O)C(C)NCC=CCO5)N3C(C#N)C(C2)N1C)OCO6 (stereo not drawn) [Compound 42],40,< 10,18,42,30,< 10,27,15,19,35,13,31,38,17,< 10,16,55,16,GI50 [8]: 17 nM; GI50 [10]: < 10 nM; GI50 [14]: < 10 nM
